Measured values as given in PMC9143228, “Evaluation of 3-Borono-L-Phenylalanine as a Water-Soluble Boron Neutron Capture Therapy Agent” (Pharmaceutics, 2022).
In brackets after ≈: the same amount, converted by molar mass. One block for each compound: values may come before it.

Columns and labels:
[1] = Water solubility (boron in supernatant by ICP-MS); format: physicochemical; details: for solubility at 24 h: 25 °C, 24 h stirring, n = 6
Procedure: 3-BPA or 4-BPA (40 mg) were suspended in 200 μL water and stirred at 25 °C for 24 h. After stirring, the solution was centrifuged at 5000 rpm for 10 min, and the amount of boron in the supernatant solution was measured by 8800 triple quadrupole ICP-MS (Agilent, Santa Clara, CA, USA). The experiment was repeated twice with n = 3.

[2] = Log p measurement (water/1-octanol, ICP-MS); format: physicochemical; details: v/v); water:1-octanol 1:1, n = 12
Procedure: After dissolving 3-BPA or 4-BPA in water (0.2 mg/mL), 1-octanol was added to compose a water:1-octanol (1:1, v/v) mixture. The mixture was shaken for 5 min and then centrifuged at 5000 rpm for 10 min. The amount of boron was measured for each liquid phase using ICP-MS, and log p was calculated from the concentration ratio of each liquid phase. The experiment was repeated twice with n = 6.

[3] = test system: T3M-4 human pancreatic adenocarcinoma cells; assay: Cellular uptake study, T3M-4; format: cell-based; details: for Boron uptake, specific (LAT1-specific): difference non-inhibitor minus inhibitor; for Boron uptake, non-inhibitor: no inhibitor, mixed with fructose; for Boron uptake, inhibitor: with 10 µM LAT1 inhibitor JPH203
Procedure: (§1) B16F10 mouse melanoma cells (RCB2630) and T3M-4 human pancreatic adenocarcinoma cells (RCB1021) were provided by the RIKEN BRC (Ibaraki, Japan). U-87MG human glioblastoma cells were provided by Prof. Magata (Hamamatsu University School of Medicine, Hamamatsu, Japan), and A549 human lung carcinoma cells (CCL-185) were obtained from ATCC (Manassas, VA, USA). Cells were cultured in growth medium RPMI 1640 for B16F10 and T3M-4 and DMEM for A549 and U-87MG, containing 10% fetal bovine serum at 37 °C in a humidified atmosphere of 5% CO2.
(§2) Cells were cultured in six-well plates 2 days before the experiment. After medium removal, cells were washed twice with choline buffer (140 mM choline chloride, 2 mM potassium chloride, 1 mM magnesium chloride, 1 mM calcium chloride, 1 M Tris) and preincubated with 900 µL of choline buffer containing/not containing 10 µM of the LAT1-specific inhibitor JPH203 [32, 33] (Selleck Biotech, Tokyo, Japan) at 37 °C for 5 min. After incubation, 100 µL of 3-BPA or 4-BPA mixed with fructose (0.5 mg/mL, 0.11 w/v% Fru, pH 7.4) was added and incubated at 37 °C for 1, 5, and 30 min. After washing three times with choline buffer, 400 µL of 0.2 M NaOH was added to lyse the cells. After the amount of cell protein was measured using the BCA method (Thermo Fisher Scientific, Tokyo, Japan) and the mixture was ashed with nitric acid, the amount of boron was measured using ICP-MS. The accumulation rate was calculated as % dose/mg protein from the quantified dose of boron in added 3-BPA and 4-BPA, respectively (n = 3).

[4] = test system: A549 human lung carcinoma cells; assay: Cellular uptake study, A549; format: cell-based; details: for Boron uptake, specific (LAT1-specific): difference non-inhibitor minus inhibitor; for Boron uptake, non-inhibitor: no inhibitor, mixed with fructose; for Boron uptake, inhibitor: with 10 µM LAT1 inhibitor JPH203
Procedure: as §1, §2

[5] = test system: B16F10 mouse melanoma cells; assay: Cellular uptake study, B16F10; format: cell-based; details: for Boron uptake, specific (LAT1-specific): difference non-inhibitor minus inhibitor; for Boron uptake, non-inhibitor: no inhibitor, mixed with fructose; for Boron uptake, inhibitor: with 10 µM LAT1 inhibitor JPH203
Procedure: as §1, §2

[6] = test system: U-87MG human glioblastoma cells; assay: Cellular uptake study, U-87MG; format: cell-based; details: for Boron uptake, specific (LAT1-specific): difference non-inhibitor minus inhibitor; for Boron uptake, non-inhibitor: no inhibitor, mixed with fructose; for Boron uptake, inhibitor: with 10 µM LAT1 inhibitor JPH203
Procedure: as §1, §2

[7] = parameters: method as in doi:10.1007/978-1-4757-9567-7_10; details: cited from earlier work
[8] = cited from earlier work

SMILES: NC(Cc1cccc(O)c1)C(=O)O (racemic) [meta-Tyrosine, DL-meta-tyrosine]
Solubility (g/L) (in water, 25°C, n = 3) ([1]; in water, 25°C, n = 3, Table S8): 9.8 ± 0.1 g/L (≈ 54.1 mM) | Water solubility of DL-meta-tyrosine relative to DL-tyrosine ([1]; times higher than DL-tyrosine): more than 25 times

solubility at 24 h ([1]; in water): 125 mg/mL (≈ 598 mM) | Water solubility of 3-BPA relative to 4-BPA ([1]; times higher than 4-BPA): more than 100 times | logP [2]: -1.59
SMILES: N[C@@H](Cc1cccc(B(O)O)c1)C(=O)O [3-BPA, 3-borono-L-phenylalanine]
Boron uptake, specific (LAT1-specific) ([3]; T3M-4, 1 min): 0.69 ± 0.09 % dose/mg protein | Boron uptake, non-inhibitor ([3]; T3M-4, 1 min): 0.78 ± 0.09 % dose/mg protein | Boron uptake, inhibitor ([3]; T3M-4, 1 min): 0.09 ± 0.08 % dose/mg protein | Boron uptake, specific (LAT1-specific) ([3]; T3M-4, 5 min): 3.55 ± 0.40 % dose/mg protein | Boron uptake, non-inhibitor ([3]; T3M-4, 5 min): 3.55 ± 0.40 % dose/mg protein | Boron uptake, inhibitor ([3]; T3M-4, 5 min): 0.09 ± 0.07 % dose/mg protein | Boron uptake, specific (LAT1-specific) ([3]; T3M-4, 30 min): 5.41 ± 0.63 % dose/mg protein | Boron uptake, non-inhibitor ([3]; T3M-4, 30 min): 5.62 ± 0.63 % dose/mg protein | Boron uptake, inhibitor ([3]; T3M-4, 30 min): 0.21 ± 0.06 % dose/mg protein | Boron uptake, specific (LAT1-specific) ([4]; A549, 1 min): 0.30 ± 0.12 % dose/mg protein | Boron uptake, non-inhibitor ([4]; A549, 1 min): 0.48 ± 0.12 % dose/mg protein | Boron uptake, inhibitor ([4]; A549, 1 min): 0.18 ± 0.03 % dose/mg protein | Boron uptake, specific (LAT1-specific) ([4]; A549, 5 min): 0.94 ± 0.40 % dose/mg protein | Boron uptake, non-inhibitor ([4]; A549, 5 min): 1.22 ± 0.13 % dose/mg protein | Boron uptake, inhibitor ([4]; A549, 5 min): 0.29 ± 0.02 % dose/mg protein | Boron uptake, specific (LAT1-specific) ([4]; A549, 30 min): 3.60 ± 0.24 % dose/mg protein | Boron uptake, non-inhibitor ([4]; A549, 30 min): 4.02 ± 0.24 % dose/mg protein | Boron uptake, inhibitor ([4]; A549, 30 min): 0.42 ± 0.01 % dose/mg protein | Boron uptake, specific (LAT1-specific) ([5]; B16F10, 1 min): 0.03 ± 0.03 % dose/mg protein | Boron uptake, non-inhibitor ([5]; B16F10, 1 min): 0.23 ± 0.03 % dose/mg protein | Boron uptake, inhibitor ([5]; B16F10, 1 min): 0.21 ± 0.06 % dose/mg protein | Boron uptake, specific (LAT1-specific) ([5]; B16F10, 5 min): 0.42 ± 0.11 % dose/mg protein | Boron uptake, non-inhibitor ([5]; B16F10, 5 min): 0.59 ± 0.11 % dose/mg protein | Boron uptake, inhibitor ([5]; B16F10, 5 min): 0.17 ± 0.11 % dose/mg protein | Boron uptake, specific (LAT1-specific) ([5]; B16F10, 30 min): 0.56 ± 0.07 % dose/mg protein | Boron uptake, non-inhibitor ([5]; B16F10, 30 min): 0.80 ± 0.07 % dose/mg protein | Boron uptake, inhibitor ([5]; B16F10, 30 min): 0.24 ± 0.01 % dose/mg protein | Boron uptake, specific (LAT1-specific) ([6]; 1 min): 0.02 ± 0.04 % dose/mg protein | Boron uptake, non-inhibitor ([6]; 1 min): 0.33 ± 0.04 % dose/mg protein | Boron uptake, inhibitor ([6]; 1 min): 0.31 ± 0.05 % dose/mg protein | Boron uptake, specific (LAT1-specific) ([6]; 5 min): 0.15 ± 0.04 % dose/mg protein | Boron uptake, non-inhibitor ([6]; 5 min): 0.28 ± 0.04 % dose/mg protein | Boron uptake, inhibitor ([6]; 5 min): 0.14 ± 0.05 % dose/mg protein | Boron uptake, specific (LAT1-specific) ([6]; 30 min): 0.21 ± 0.05 % dose/mg protein | Boron uptake, non-inhibitor ([6]; 30 min): 0.45 ± 0.05 % dose/mg protein | Boron uptake, inhibitor ([6]; 30 min): 0.24 ± 0.04 % dose/mg protein | pKa1 [7]: 2.26 | pKa2 [7]: 8.46 | pKa3 [7]: 9.95

solubility at 24 h ([1]; in water): 0.72 ± 0.13 mg/mL (≈ 3.44 mM) | logP [2]: -1.8 ± 0.04
SMILES: N[C@@H](Cc1ccc(B(O)O)cc1)C(=O)O [4-BPA, 4-borono-L-phenylalanine]
Boron uptake, specific (LAT1-specific) ([3]; T3M-4, 1 min): 0.56 ± 0.11 % dose/mg protein | Boron uptake, non-inhibitor ([3]; T3M-4, 1 min): 0.82 ± 0.11 % dose/mg protein | Boron uptake, inhibitor ([3]; T3M-4, 1 min): 0.26 ± 0.16 % dose/mg protein | Boron uptake, specific (LAT1-specific) ([3]; T3M-4, 5 min): 3.10 ± 0.39 % dose/mg protein | Boron uptake, non-inhibitor ([3]; T3M-4, 5 min): 3.28 ± 0.39 % dose/mg protein | Boron uptake, inhibitor ([3]; T3M-4, 5 min): 0.18 ± 0.02 % dose/mg protein | Boron uptake, specific (LAT1-specific) ([3]; T3M-4, 30 min): 5.19 ± 0.45 % dose/mg protein | Boron uptake, non-inhibitor ([3]; T3M-4, 30 min): 5.40 ± 0.45 % dose/mg protein | Boron uptake, inhibitor ([3]; T3M-4, 30 min): 0.20 ± 0.01 % dose/mg protein | Boron uptake, specific (LAT1-specific) ([4]; A549, 1 min): 0.13 ± 0.04 % dose/mg protein | Boron uptake, non-inhibitor ([4]; A549, 1 min): 0.14 ± 0.04 % dose/mg protein | Boron uptake, inhibitor ([4]; A549, 1 min): 0.01 ± 0.01 % dose/mg protein | Boron uptake, specific (LAT1-specific) ([4]; A549, 5 min): 0.66 ± 0.08 % dose/mg protein | Boron uptake, non-inhibitor ([4]; A549, 5 min): 0.66 ± 0.08 % dose/mg protein | Boron uptake, inhibitor ([4]; A549, 5 min): 0.00 ± 0.01 % dose/mg protein | Boron uptake, specific (LAT1-specific) ([4]; A549, 30 min): 3.75 ± 0.20 % dose/mg protein | Boron uptake, non-inhibitor ([4]; A549, 30 min): 3.92 ± 0.20 % dose/mg protein | Boron uptake, inhibitor ([4]; A549, 30 min): 0.17 ± 0.09 % dose/mg protein | Boron uptake, specific (LAT1-specific) ([5]; B16F10, 1 min): 0.03 ± 0.01 % dose/mg protein | Boron uptake, non-inhibitor ([5]; B16F10, 1 min): 0.03 ± 0.01 % dose/mg protein | Boron uptake, inhibitor ([5]; B16F10, 1 min): 0.00 ± 0.01 % dose/mg protein | Boron uptake, specific (LAT1-specific) ([5]; B16F10, 5 min): 0.48 ± 0.01 % dose/mg protein | Boron uptake, non-inhibitor ([5]; B16F10, 5 min): 0.62 ± 0.01 % dose/mg protein | Boron uptake, inhibitor ([5]; B16F10, 5 min): 0.14 ± 0.03 % dose/mg protein | Boron uptake, specific (LAT1-specific) ([5]; B16F10, 30 min): 0.56 ± 0.06 % dose/mg protein | Boron uptake, non-inhibitor ([5]; B16F10, 30 min): 0.57 ± 0.06 % dose/mg protein | Boron uptake, inhibitor ([5]; B16F10, 30 min): 0.01 ± 0.01 % dose/mg protein | Boron uptake, specific (LAT1-specific) ([6]; 1 min): 0.05 ± 0.02 % dose/mg protein | Boron uptake, non-inhibitor ([6]; 1 min): 0.13 ± 0.02 % dose/mg protein | Boron uptake, inhibitor ([6]; 1 min): 0.08 ± 0.01 % dose/mg protein | Boron uptake, specific (LAT1-specific) ([6]; 5 min): 0.06 ± 0.02 % dose/mg protein | Boron uptake, non-inhibitor ([6]; 5 min): 0.20 ± 0.02 % dose/mg protein | Boron uptake, inhibitor ([6]; 5 min): 0.14 ± 0.02 % dose/mg protein | Boron uptake, specific (LAT1-specific) ([6]; 30 min): 0.31 ± 0.03 % dose/mg protein | Boron uptake, non-inhibitor ([6]; 30 min): 0.48 ± 0.03 % dose/mg protein | Boron uptake, inhibitor ([6]; 30 min): 0.17 ± 0.01 % dose/mg protein | pKa1 [7]: 2.35 | pKa2 [7]: 8.45 | pKa3 [7]: 9.67 | Water solubility under neutral conditions ([8]; neutral conditions, ref Borofalan interview form): 0.6 to 0.7 mg/mL

solubility ([1]; in water, 25°C, n = 3, Table S8, read-out: Solubility (g/L) (in water, 25°C, n = 3)): 15.3 ± 0.1 g/L (≈ 92.6 mM)
SMILES: N[C@@H](Cc1ccccc1)C(=O)O [phenylalanine]
water solubility [8]: 12.0 mg/mL (≈ 72.6 mM)
